Assay [1] deals with uric acid in serum. The assay is described as follows: Lowering effect of test compound on the level of uric acid in serum (in vivo, oral administration). Also noted: species or system mouse (normal male ICR mice). Conditions: Mus musculus, 4 hours after administration, male ICR mice, suspended in 0.5% CMC-Na, read-out: in vivo Lowering rate (%) of uric acid in serum (in 4 hours). As to the method:
Experiment 2 (In Vivo: Oral Administration)
(1) Animals, Method of Administration and Sampling of Serum
Normal male ICR mice (weighting about 30 g), were provided normal diet and tap water ad libitum. A test compound suspended in 0.5% CMC-Na was administered orally to the mice (each group: 6 mice) in a dose of 5 mg/kg.
(2) Measurement of Amount of Uric Acid in Serum
To the serum (200 μl) was added 10% perchloric acid (100 μl), and the mixture was centrifuged. To the supernatant fluid (100 μl) was added 0.2M Na2 HPO4 (200 μl), and the mixture (20 μl) was analyzed by HPLC to measure the amount of uric acid. The HPLC was carried out under the following conditions.
Column: Cosmosil packed column (.phi. 4.6 mm×150 mm, 5C18 -300)
(§1) Eluting solution: 10 mM phosphate buffer (pH 6.0)
(§2) Retention time: 2.4 minutes (uric acid)
(3) Lowering Effect of Test Compound on the Level of Uric Acid in Serum
The lowering rate of uric acid in serum was calculated by the following equation. [formula]

For assay [2], the target named is T1, Xanthine oxidase (Mus musculus, UniProt Q00519).
T1 construct: The small intestine was homogenized in 4-fold volume of cooled phosphate buffered saline solution (PBS) and then centrifuged; from tissue; host or cells: small intestine of ICR strain mice; dialysed supernatant of a 105,000 g centrifugation
T1 sequence (Q00519 whole entry): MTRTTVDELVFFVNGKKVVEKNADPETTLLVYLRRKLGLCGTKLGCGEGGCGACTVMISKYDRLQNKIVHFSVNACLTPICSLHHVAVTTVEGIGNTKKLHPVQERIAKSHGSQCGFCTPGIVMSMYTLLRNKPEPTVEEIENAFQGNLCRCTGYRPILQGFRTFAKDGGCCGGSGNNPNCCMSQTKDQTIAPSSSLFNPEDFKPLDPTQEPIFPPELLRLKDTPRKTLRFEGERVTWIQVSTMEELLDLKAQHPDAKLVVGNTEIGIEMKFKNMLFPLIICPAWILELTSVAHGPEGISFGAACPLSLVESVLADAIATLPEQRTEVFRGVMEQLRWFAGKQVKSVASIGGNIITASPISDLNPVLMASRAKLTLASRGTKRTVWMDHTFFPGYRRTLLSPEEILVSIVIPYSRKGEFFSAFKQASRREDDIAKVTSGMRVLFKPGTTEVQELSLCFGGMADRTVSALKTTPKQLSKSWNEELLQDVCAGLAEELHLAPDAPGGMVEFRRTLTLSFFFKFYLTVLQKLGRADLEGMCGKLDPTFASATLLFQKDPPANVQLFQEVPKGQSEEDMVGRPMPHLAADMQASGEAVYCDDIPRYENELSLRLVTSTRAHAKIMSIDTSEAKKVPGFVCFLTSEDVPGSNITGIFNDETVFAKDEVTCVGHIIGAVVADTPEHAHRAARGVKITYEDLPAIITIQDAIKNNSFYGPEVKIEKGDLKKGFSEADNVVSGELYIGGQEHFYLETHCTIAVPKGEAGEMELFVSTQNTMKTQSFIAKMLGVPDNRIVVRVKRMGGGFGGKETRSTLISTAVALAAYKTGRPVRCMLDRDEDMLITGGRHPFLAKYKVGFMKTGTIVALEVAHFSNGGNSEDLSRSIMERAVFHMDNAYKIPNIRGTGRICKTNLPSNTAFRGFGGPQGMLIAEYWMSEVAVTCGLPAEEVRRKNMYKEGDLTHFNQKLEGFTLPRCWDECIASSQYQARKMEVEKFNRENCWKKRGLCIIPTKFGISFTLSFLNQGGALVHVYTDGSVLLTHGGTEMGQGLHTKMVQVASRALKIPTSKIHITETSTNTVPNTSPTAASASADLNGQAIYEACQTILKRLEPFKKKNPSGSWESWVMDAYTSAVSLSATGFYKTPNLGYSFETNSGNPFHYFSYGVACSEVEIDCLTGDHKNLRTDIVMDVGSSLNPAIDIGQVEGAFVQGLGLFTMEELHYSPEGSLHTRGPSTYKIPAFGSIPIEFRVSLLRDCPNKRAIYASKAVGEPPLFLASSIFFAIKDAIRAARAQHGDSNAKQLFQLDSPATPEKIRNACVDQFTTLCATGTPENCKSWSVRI
The assay can be described thus: Xanthine oxidase inhibition (in vitro), mouse small intestine xanthine oxidase solution, HPLC of uric acid. It is filed as biochemical, mouse (ICR strain mice. Conditions: xanthine substrate, incubated at 37° C. for 5 minutes; HPLC UV 292 nm. As to the method: (1) Preparation of Xanthine Oxidase Solution
ICR strain mice were decapitated and the small intestine of each mouse was rapidly perfused with cooled physiological saline solution and removed. The small intestine was homogenized in 4-fold volume of cooled phosphate buffered saline solution (PBS) and then centrifuged at 105,000 g for 60 minutes. The supernatant fluid was dialyzed overnight against PBS. The dialyzed solution thus prepared was stored at -20° C. until used.
(2) Preparation of the Solution Containing the Present Compound
The compound of this invention was dissolved in DMSO (200 μl) and 2N NaOH (100 μl), and then PBS was added to prepare a solution (25 ml) containing 10^-3 M of the compound of this invention. This solution was diluted with PBS to prepare solutions containing the compound in the concentration of 10^-4, 10^-5, 10^-6, 10^-7, 10^-8, 10^-9, 10^-10, and 10^-11 M, respectively.
(3) Method for the Measurement
The assay mixture, consisted of the composition mentioned below, was incubated at 37° C. for 5 minutes. The reaction was stopped by heating in boiling water for one minute. Twenty microliters of the supernatant was analyzed by high performance liquid chromatography (HPLC) under the conditions mentioned below.
Xanthine oxidase solution (diluted in 4-folds with PBS): 200 μl
Solution containing the present compound: 200 μl
Column: osmosil packed column (.phi. 4. mm×150 mm, 5C18×300)
as §1, §2
(4) Percent Inhibition of the Compound Against Xanthine Oxidase
The percent inhibition was calculated by the following equation. [formula]
As to each of the solutions containing the present compound as prepared in the above (2), the percent inhibition was calculted, and IC50 values were obtained from a plot of the percent inhibition against the log of the concentration of the compound of this invention.

The term IC50 denotes the concentration that inhibits the measured activity by half. Read a high IC50 as weaker potency in that assay.

Take `CSc1ccc(-c2cnn3c(O)ncnc23)cc1SC` [Example 41, 8-[(3,4-Bismethylthio)phenyl]-4-hydroxypyrazolo[1,5-a]-1,3,5-triazine]: the inhibition in vivo at 5 mg/kg in assay [1] turned out to be 60.1%. The IC50 in assay [2] was determined as 0.024 µM.

Consider `CCSc1ccc(-c2cnn3c(O)ncnc23)cc1C` [Example 31, 8-(4-Ethylthio-3-methylphenyl)-4-hydroxypyrazolo[1,5-a]-1,3,5-triazine], for which the inhibition in vivo at 5 mg/kg in assay [1] worked out at 63.5%. Besides, the 50% inhibitory concentration (IC50) in assay [2] was 0.01 µM.

Consider `CSc1cc(F)c(-c2cnn3c(O)ncnc23)cc1C` [Example 54, 8-(2-Fluoro-5-methyl-4-methylthiophenyl)-4hydroxypyrazolo[1,5-a]-1,3,5-triazine], for which the inhibition in vivo at 5 mg/kg in assay [1] worked out at 65.2%. For the same compound, the IC50 in assay [2] came out at 0.55 µM.

Turning to `CSc1ccc(-c2cnn3c(O)ncnc23)cc1Br` [Example 146, 8-(3-Bromo-4-methylthiophenyl)-4-hydroxypyrazolo[1,5-a]-1,3,5-triazine], the inhibition in vivo at 5 mg/kg in assay [1] was found to be 47%. Further, in assay [2], the IC50 is 0.0027 µM.

For the origin of these results see patent publication US4824834A, “Pyrazolotriazine compounds” (Otsuka Pharmaceutical Company, Limited, priority 1986, dated 1989).
